Where “and” joins values, the source holds several entries; their conditions need not be identical. Equal entries are not always repeated.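 How tested: cells in 96-well plates exposed to compound for 48 hours at five concentrations. At the GI50, growth is halved. The concentration for full growth arrest is given as TGI.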
Tested on: MDA-MB-468 breast
Test: growth of human tumour cells (NCI), 48 h

Structure (SMILES)	GI50	TGI
Cc1c(C(=O)/C=C/c2csc3ccccc23)[n+](=O)c2ccccc2n1[O-]	1710 nM	3600 nM
CC1SC(c2c(Cl)cccc2Cl)N(NC(=O)c2[nH]c3ccc(F)cc3c2-c2ccccc2)C1=O (stereo unspecified)	3720 nM	29900 nM
COc1cccc(/C=C/C(=O)c2cccc(Nc3nc(Nc4ccccc4)nc(Nc4ccccc4)n3)c2)c1	2500 nM	11300 nM
COC(=O)[C@@H](C)C[C@H](Cc1ccccc1)NC(=O)c1nc([C@@H](C[C@H](C(C)C)N(C)C(=O)[C@@H](NC(=O)[C@H]2CCCCN2C)C(C)C)OC(C)=O)sc1C	< 1.67 nM	> 16700 nM
CC(C)NC[C@@H](C(=O)N1CCN(c2ncnc3c2[C@H](C)C[C@H]3O)CC1)c1ccc(Cl)cc1	112 nM and 134 nM	582 nM and 2190 nM
CNC(=O)n1ccc2cc(Oc3ccnc(NC(=O)c4ccc(C5CCN(CCO)CC5)cc4)c3)c(OCCOC)cc21	1990 nM	4220 nM
COC1(C(=O)N[C@@H](C)c2ccc(-n3cc(F)cn3)nc2)CCC(c2nc(C)cc(Nc3cc(C)[nH]n3)n2)CC1 (stereo partly specified)	1980 nM	6960 nM
CN1CCN(CCc2cccc(C(=O)c3cnn(-c4ccc(F)cc4)c3N)c2)CC1	> 25000 nM	> 25000 nM
O=C(CCCCCCNC(=O)C(O)(O)C(F)(F)F)Nc1ccc(-c2ccccc2)cc1	861 nM	3100 nM
C[C@H](Nc1ncnc2nc[nH]c12)c1cc2cccc(Cl)c2c(=O)n1-c1ccccc1	1550 nM	22900 nM
COC(=O)/C=C/C=C(c1ccccc1)c1ccccc1	3470 nM	18700 nM
Nc1c(C(=O)Nc2cccc([N+](=O)[O-])c2)sc2nc3c(cc12)C(O)CCC3 (stereo unspecified)	2110 nM	> 100000 nM
Cc1[c-]onc1C.Cc1[c-]onc1C.[Ag].[Ag].[NH-]S(=O)(=O)c1ccc(N=Nc2cc(N=Nc3ccc(S([NH-])(=O)=O)cc3)c3c(NC(=O)C(Cl)Cl)cccc3c2OC(=O)C(Cl)Cl)cc1	1920 nM	8480 nM
Cc1ccc(/C=C2\CN(C(=O)OC(C)(C)C)C/C(=C\c3ccc(C)cc3)C2=O)cc1	87.8 nM	> 100000 nM
COc1cc(Cl)cc(-c2nn(C(=O)NCCN3CCOCC3)cc2-c2ccncc2)c1	2000 nM	11500 nM
COc1ccc(C(=O)/C=C/c2ccc(/C=C/c3cc(OC)c(OC)c(OC)c3)cc2)cc1	3390 nM	48700 nM
O=C1OC(=O)C(c2c[nH]c3ccccc23)=C1c1c[nH]c2ccccc12	> 19300 nM	> 25000 nM
COc1ccc2c(c1)O/C(=C\c1cccc(OCC(=O)Nc3nc4c(s3)CCCC4)c1)C2=O	1710 nM	48400 nM
O=S(=O)(NC1CC2CCC1C2)c1ccc2c(c1)C(=NO)c1cc(S(=O)(=O)NC3CC4CCC3C4)ccc1-2 (stereo unspecified)	327 nM	1090 nM
ClCCn1c(CCl)nc2ccc(Cl)cc21	1680 nM	3420 nM
C=C1C(=O)O[C@H]2[C@H]1CC/C(COC(=O)NCc1ccccc1OC)=C\CC[C@@]1(C)O[C@@H]21	669 nM	2800 nM
CNC(=O)c1cncc(/C=C/c2ccccc2C)c1	> 25000 nM	> 25000 nM
COc1cc(C2c3cc4c(cc3OC(N3CCCC3)C2C)OCO4)cc(OC)c1OC (stereo unspecified)	416 nM	54800 nM

Reference: PubChem BioAssay (NCI)
